# Like-named read-outs stand apart in the source and are kept apart here.
# What was measured:
# Tet(X4) = Tet(X4) (Escherichia coli, UniProt A0A3T0V9Y5); assay: FP competitive displacement of probe 6; assay type: binding; conditions: 25 nM 6, 40 nM Tet(X4), 5 mM MgCl2, 1 μM FAD, 100 mM Tris pH 7.0, 0.01% Triton X-100
# Experimental: A 2× solution containing 80 nM Tet(X4), 2 μM FAD and 10 mM MgCl2 in the assay buffer was dispensed into the first 22 columns of a 384-well black, non-binding microtiter plate (Greiner Bio-One), 12.5 μL per well, using a microplate reagent dispenser. A solution of 2 μM FAD and 10 mM MgCl2 in the assay buffer was dispensed into the remaining columns to serve as a no enzyme control. A 3-fold, 10-point dilution series of substrates and inhibitors was made in DMSO in a V-bottom 96-well plate (Greiner Bio-One) with a highest concentration of 5 mM or 0.5 mM. Into one column was added DMSO with no inhibitor or substrate, to serve as a positive control. Tigecycline was included as a reference on every plate to ensure reproducibility. 0.5 μL of each dilution was transferred in quadruplicate to the 384-well plate containing enzyme solution using a CyBi-Well liquid-handling robot (CyBio). A solution of 50 nM 6 in the assay buffer was then dispensed, with 12.5 μL per well. The plate was briefly centrifuged (1000 rpm), then incubated at ambient temperature for 30 min prior to measuring the FP. Data points were normalised between the positive and negative controls. Normalised % response was plotted as a function of log10([Inhibitor]), and the IC50^app was determined by fitting the data to the equation: Y = Bottom + (top-bottom)/(1 + 10^Log(IC50) − X) × HillSlope in GraphPad Prism 9.4.1, where Y = % response and X = log10([Inhibitor]). Wells with unusual fluorescence intensities were manually identified and removed from the analysis. […]
# [1] = system: Acinetobacter spp. NT3-1 – tet(X3); assay: microbe, parasite or virus in culture; assay type: cell-based
# Experimental: (§1) MIC tests and checkerboard assays were performed in U-bottom, 96-well microtiter plates using a modified broth microdilution protocol following CLSI guidelines. Cation-adjusted Mueller-Hinton Broth (CAMHB) was prepared fresh on the day of testing.[74] In brief, assays were set up in a total volume of 100 μL per well and titrations comprised seven 2-fold dilutions of inhibitors and ten 2-fold dilutions of tigecycline in CAMHB. Bacterial colonies were selected from an overnight culture on MHA plates (supplemented with 0.2%w/vL-arabinose for E. coli TOP10 containing pBAD-TOPO-Tet(X4)) and were suspended in 0.9% saline solution to achieve a 0.5 McFarland standard. A 100 μL aliquot of this suspension was then diluted into 9.9 mL of CAMHB to yield approximately 1.5 × 10^6 cfu mL^−1. 50 μL of the suspension was then added to each well of a microtiter plates. Plates were incubated at 37 °C for 18 h. At least 2 replicates were conducted for each combination. E. coli TOP10 + pBAD-TOPO-Tet(X4) cells were grown in the absence and presence of 0.2%w/vL-arabinose. Analysis of the MIC and checkerboard results were carried out by visual inspection of growth, with and without resazurin dye, an oxidation–reduction indicator.[75] As a measure of synergy, fractional inhibitory concentration index (FICI) was calculated as FICA + FICB, where FICA and FICB are the MICcombination/MICalone for each agent, respectively.[76] Results were interpreted as follows: synergistic (<0.5), indifferent (1.0–4.0) or antagonistic (>4.0).[64] In cases where the MIC exceeded or was below the measured range, the borderline value was taken to calculate the FIC index.
# [2] = system: Salmonella enterica T-2a – tet(X4); assay: microbe, parasite or virus in culture; assay type: cell-based
# Experimental: as §1
# [3] = system: Proteus penneri NT6-2 – tet(X6); assay: microbe, parasite or virus in culture; assay type: cell-based
# Experimental: as §1, with “In brief, assays were set up in a total volume of 100 μL per well and titrations comprised seven 2-fold dilutions of inhibitors and ten 2-fold dilutions of tigecycline in CAMHB.” left out
# [4] = system: Acinetobacter baumannii NT5-1 – tet(X5); assay: microbe, parasite or virus in culture; assay type: cell-based
# Experimental: as §1, with “In brief, assays were set up in a total volume of 100 μL per well and titrations comprised seven 2-fold dilutions of inhibitors and ten 2-fold dilutions of tigecycline in CAMHB.” left out
# [5] = system: Escherichia coli T-24a – tet(X4); assay: microbe, parasite or virus in culture; assay type: cell-based
# Experimental: as §1, with “In brief, assays were set up in a total volume of 100 μL per well and titrations comprised seven 2-fold dilutions of inhibitors and ten 2-fold dilutions of tigecycline in CAMHB.” left out
# [6] = system: E. coli TOP10 containing plasmid pBAD-TOPO-Tet(X4); assay: Broth microdilution MIC and checkerboard assay; assay type: cell-based, Escherichia coli; conditions: alone; without L-arabinose induction
# Source text: Tet(X4) was sub-cloned from the Tet(X4) pET28b-(+) expression vector via TOPO cloning. The insert was amplified using the taq polymerase with the forward primer 5′- […]-3′ and the reverse primer 5′- […]-3’. Following PCR purification (Thermo Fisher Scientific), the A-tailed PCR product was ligated into the pBAD-TOPO vector using a TOPO cloning kit (Invitrogen) according to the manufacturer's protocol. Following amplification in E. coli NEB5α cells (NEBiolabs), the fidelity of the insert was confirmed by Sanger sequencing (Eurofins). For microbiological experiments, E. coli TOP10 cells were used as the recipient strain. Cells were plated on Mueller-Hinton agar (MHA) plates containing ampicillin at 100 μg mL^−1. The introduction of pBAD-TOPO-Tet(X4) was confirmed by colony PCR. Strains were stored in a freezer at −80 °C in cryopreservation beads.
# as §1, with “In brief, assays were set up in a total volume of 100 μL per well and titrations comprised seven 2-fold dilutions of inhibitors and ten 2-fold dilutions of tigecycline in CAMHB.” left out
# [7] = IC50app, Tet(X4) (Polarization)
# [8] = inhibitor in combination with tigecycline, lowest FICI
# [9] = tigecycline in combination with the inhibitor, lowest FICI
smiles,measurement,setting,value
CCC1(c2cnc[nH]2)Cc2ccccc2C1 [Atipamezole],IC50,Tet(X4); [7],> 100000 nM
Nc1nc2c(c(=O)[nH]1)N(C=O)C(CNc1ccc(C(=O)N[C@@H](CCC(=O)O)C(=O)O)cc1)CN2 (stereo partly shown) [Calcium folinate],IC50,Tet(X4); [7],> 100000 nM
CN(C)[C@@H]1C(O)=C(C(N)=O)C(=O)[C@@]2(O)C(O)=C3C(=O)c4c(O)ccc(Cl)c4[C@@](C)(O)[C@H]3C[C@@H]12 [Chlortetracycline],IC50,"Tet(X4); IC50app, FP assay",39 ± 9.6 nM
C[C@@H](Oc1cc(-c2cnn(C3CCNCC3)c2)cnc1N)c1c(Cl)ccc(F)c1Cl [Crizotinib],IC50,Tet(X4); [7],> 100000 nM
NCCS [Cysteamine],IC50,"Tet(X4); read-out: IC50app, Tet(X4) (Polarization)",> 100000 nM
CN(C)[C@@H]1C(O)=C(C(N)=O)C(=O)[C@@]2(O)C(O)=C3C(=O)c4c(O)ccc(Cl)c4[C@@H](O)[C@H]3C[C@@H]12 [Demeclocycline],IC50,"Tet(X4); IC50app, FP assay",29 ± 4.6 nM
N=C(N)c1ccc(/N=N/Nc2ccc(C(=N)N)cc2)cc1 [Diminazene],IC50,Tet(X4); [7],> 100000 nM
CCN(CC)C(=S)SSC(=S)N(CC)CC [Disulfiram],IC50,Tet(X4); [7],> 100000 nM
NCCc1ccc(O)c(O)c1 [Dopamine],IC50,Tet(X4); [7],> 100000 nM
C[C@]12CCC(=O)C=C1[C@@H]1C[C@@H]1[C@H]1[C@@H]3[C@@H]4C[C@@H]4[C@@]4(CCC(=O)O4)[C@@]3(C)CC[C@@H]12 [Drosperinone],Tet(X) inhibitor MIC,"[1]; alone, Acinetobacter spp. NT3-1",128 µg/mL
same,Combination (Antibiotic/Inhibitor) MICs: inhibitor,[1]; [8],128 µg/mL
same,Combination (Antibiotic/Inhibitor) MICs: antibiotic,[1]; [9],4 µg/mL
same,FICI,[1]; with tigecycline,2
same,Outcome,[1]; with tigecycline,indifferent (indifferent (0.5-4.0))
same,Combination (Antibiotic/Inhibitor) MICs: antibiotic,[2]; [9],16 µg/mL
same,FICI,[2]; with tigecycline,1.5
same,Outcome,[2]; with tigecycline,indifferent (indifferent (0.5-4.0))
same,Tet(X) inhibitor MIC,"[3]; alone, P. penneri NT6-2",> 128 µg/mL
same,Combination (Antibiotic/Inhibitor) MICs: inhibitor,[3]; [8],128 µg/mL
same,Combination (Antibiotic/Inhibitor) MICs: antibiotic,[3]; [9],8 µg/mL
same,FICI,[3]; with tigecycline,2
same,Outcome,[3]; with tigecycline,indifferent (indifferent (0.5-4.0))
same,Tet(X) inhibitor MIC,"[4]; alone, A. baumannii NT5-1",> 128 µg/mL
same,Combination (Antibiotic/Inhibitor) MICs: inhibitor,[4]; [8],128 µg/mL
same,Combination (Antibiotic/Inhibitor) MICs: antibiotic,[4]; [9],4 µg/mL
same,FICI,[4]; with tigecycline,1.5
same,Outcome,[4]; with tigecycline,indifferent (indifferent (0.5-4.0))
same,Tet(X) inhibitor MIC,"[5]; alone, E. coli T-24a",256 µg/mL
same,Combination (Antibiotic/Inhibitor) MICs: antibiotic,[5]; [9],8 µg/mL
same,FICI,[5]; with tigecycline,1
same,Outcome,[5]; with tigecycline,indifferent (indifferent (0.5-4.0))
CN(C)[C@@H]1C(O)=C(C(N)=O)C(=O)[C@@]2(O)C(O)=C3C(=O)c4c(O)c(NC(=O)CN5CCCC5)cc(F)c4C[C@H]3C[C@@H]12 [Eravacycline],IC50,"Tet(X4); IC50app, FP assay",13.7 ± 1.6 nM
COc1ccnc(C[S+]([O-])c2nc3cc(-n4cccc4)ccc3[nH]2)c1C (stereo not shown) [Ilaprazole],IC50,Tet(X4); [7],> 100000 nM
C=C1c2cccc(O)c2C(=O)C2=C(O)[C@]3(O)C(=O)C(C(N)=O)=C(O)[C@@H](N(C)C)[C@@H]3[C@@H](O)[C@H]12 [Methacycline],IC50,"Tet(X4); IC50app, FP assay",311 ± 36 nM
CN(C)c1ccc(O)c2c1C[C@H]1C[C@H]3[C@H](N(C)C)C(O)=C(C(N)=O)C(=O)[C@@]3(O)C(O)=C1C2=O [Minocycline],IC50,"Tet(X4); IC50app, FP assay",51.5 ± 3.6 nM
NC(=O)c1ncn([C@@H]2O[C@H](CO)[C@@H](O)[C@H]2O)c1O [Mizoribine],IC50,Tet(X4); [7],> 100000 nM
CN(C)c1cc(CNCC(C)(C)C)c(O)c2c1C[C@H]1C[C@H]3[C@H](N(C)C)C(O)=C(C(N)=O)C(=O)[C@@]3(O)C(O)=C1C2=O [Omadacycline],IC50,"Tet(X4); IC50app, FP assay",24.3 ± 4 nM
CN(C)[C@@H]1C(O)=C(C(N)=O)C(=O)[C@@]2(O)C(O)=C3C(=O)c4c(O)cccc4[C@@](C)(O)[C@H]3[C@H](O)[C@@H]12 [Oxytetracycline],IC50,"Tet(X4); IC50app, FP assay",4430 ± 260 nM
Nc1ccc2cc3ccc(N)cc3nc2c1 [Proflavine],IC50,Tet(X4); [7],> 100000 nM
CN(C)[C@@H]1C(O)=C(C(N)=O)C(=O)[C@@]2(O)C(O)=C3C(=O)c4c(O)cccc4C[C@H]3C[C@@H]12 [Sancycline],IC50,"Tet(X4); IC50app, FP assay",47 ± 7.1 nM
CON(C)Cc1ccc(O)c2c1C[C@H]1C[C@H]3[C@H](N(C)C)C(O)=C(C(N)=O)C(=O)[C@@]3(O)C(O)=C1C2=O [Sarecycline],IC50,"Tet(X4); IC50app, FP assay",31.5 ± 10 nM
CN(C)[C@@H]1C(O)=C(C(N)=O)C(=O)[C@@]2(O)C(O)=C3C(=O)c4c(O)cccc4[C@@](C)(O)[C@H]3C[C@@H]12 [Tetracycline],Antibiotic MIC,[6],4 µg/mL
same,IC50,"Tet(X4); IC50app, FP assay",69.6 ± 8.8 nM
